According to patent US9458195B2, “Melanocortin receptor ligands” (Ipsen Pharma S.A.S., priority 2005, dated 2016):
pEC50, pKi: −log10 of the molar value. Bridges are numbered along the chain shown (N, C = ends). [ ]: non-standard residue; d: D form. Pen = CC(C)(S)[C@H](N)C(=O)O; Nle = CCCC[C@H](N)C(=O)O; GABA = NCCCC(=O)O

Assays:
hMC1-R [1] = target: T1, hMC1-R (Homo sapiens, UniProt Q01726); test: Radioligand binding assay, [125I]-NDP-α-MSH competition, hMC1-R; conditions: CHO-K1 cell membranes
T1 construct: expressed in transfected cells; host or cells: CHO-K1 (membranes)
T1 sequence (Q01726 whole entry): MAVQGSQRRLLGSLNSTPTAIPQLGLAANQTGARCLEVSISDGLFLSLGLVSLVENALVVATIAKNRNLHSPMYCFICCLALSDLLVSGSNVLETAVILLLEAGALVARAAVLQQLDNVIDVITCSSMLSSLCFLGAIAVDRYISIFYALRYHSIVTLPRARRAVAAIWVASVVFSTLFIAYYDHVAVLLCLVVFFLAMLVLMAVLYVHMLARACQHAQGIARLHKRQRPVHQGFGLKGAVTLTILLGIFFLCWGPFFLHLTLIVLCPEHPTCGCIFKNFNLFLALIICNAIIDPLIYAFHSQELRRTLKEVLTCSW
Method: (§1) Radioligand Binding Assays
(§2) Cellular membranes used for the in vitro receptor binding assays were obtained from transgenic CHO-K1 cells stably expressing hMC-R receptor subtypes 1, 3, 4 or 5. […] The pellets were resuspended in the same buffer and centrifuged at 50,000 g for 10 minutes at approximately 4° C. The washed pellets containing the cellular membranes were stored at approximately −80° C.
(§3) Filters were washed three times with 50 mM Tris-HCl at pH 7.4 at a temperature of approximately 0-4° C. and then assayed for radioactivity using a Packard Topcount® scintillation counter. Binding data were analyzed by computer-assisted non-linear regression analysis (XL fit; IDBS).

hMC3-R [2] = target: T2, hMC3-R (Homo sapiens, UniProt P41968); test: Radioligand binding assay, [125I]-NDP-α-MSH competition, hMC3-R; conditions: CHO-K1 cell membranes
T2 construct: expressed in transfected cells; host or cells: CHO-K1 (membranes)
T2 sequence (P41968 whole entry): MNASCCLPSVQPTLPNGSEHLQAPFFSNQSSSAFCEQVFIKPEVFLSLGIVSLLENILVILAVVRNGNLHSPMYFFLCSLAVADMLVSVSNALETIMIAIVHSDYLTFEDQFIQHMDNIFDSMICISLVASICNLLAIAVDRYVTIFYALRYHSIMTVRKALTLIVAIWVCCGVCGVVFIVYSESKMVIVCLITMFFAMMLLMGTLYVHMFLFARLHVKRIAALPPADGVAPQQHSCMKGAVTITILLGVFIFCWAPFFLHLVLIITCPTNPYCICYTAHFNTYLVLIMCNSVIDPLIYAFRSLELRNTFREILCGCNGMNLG
Method: as §1, §2, §3

hMC4-R [3] = target: T3, hMC4-R (Homo sapiens, UniProt P32245); test: Radioligand binding assay, [125I]-NDP-α-MSH competition, hMC4-R; conditions: CHO-K1 cell membranes
T3 construct: expressed in transfected cells; host or cells: CHO-K1 (membranes)
T3 sequence (P32245 whole entry): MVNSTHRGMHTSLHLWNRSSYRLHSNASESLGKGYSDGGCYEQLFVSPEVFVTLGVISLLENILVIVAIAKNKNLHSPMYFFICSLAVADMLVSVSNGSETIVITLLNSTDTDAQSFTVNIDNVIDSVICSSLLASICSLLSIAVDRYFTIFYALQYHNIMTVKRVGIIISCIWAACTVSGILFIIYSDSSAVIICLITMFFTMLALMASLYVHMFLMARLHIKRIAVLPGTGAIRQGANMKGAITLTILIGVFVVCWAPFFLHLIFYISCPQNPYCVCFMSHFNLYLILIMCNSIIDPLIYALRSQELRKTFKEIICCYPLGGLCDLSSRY
Method: as §1, §2, §3

hMC1-R [4] = target: T1, hMC1-R; test: cyclic AMP bioassay (ECL), CHO-K1 cells expressing hMC1-R; assay type: cell-based; conditions: Table 3B, cAMP
Method: (§4) Intracellular cyclic AMP (cAMP) levels were determined by an electrochemiluminescence (ECL) assay (Meso Scale Discovery®, Gaithersburg, Md.; referred to hereinafter as MSD). […] Transgenic CHO-K1 cells stably expressing hMC receptor subtypes 1, 3, 4 or 5 were dispensed at a density of approximately 7,000 cells/well in 384-well Multi-Array® plates (MSD) containing integrated carbon electrodes and coated with anti-cAMP antibody. Increasing concentrations of the test compounds were added and the cells were incubated for approximately 40 minutes at approximately 37° C. […] At the end of the second incubation period read buffer (Tris-buffered solution containing an ECL co-reactant and Triton X-100 at ph 7.8) was added and the cAMP levels in the cell lysates were immediately determined by ECL detection with a Sector Imager 6000 Reader® (MSD). Data were analyzed using a computer-assisted non-linear regression analysis (XL fit; IDBS) and reported as either an EC50 value or a Kb value.

hMC4-R [5] = target: T3, hMC4-R; test: cyclic AMP bioassay (ECL), CHO-K1 cells expressing hMC4-R; assay type: cell-based; conditions: Table 3B, cAMP
Method: as §4

hMC5-R [6] = target: T4, hMC5-R (Homo sapiens, UniProt P33032); test: cyclic AMP bioassay (ECL), CHO-K1 cells expressing hMC5-R; assay type: cell-based; conditions: Table 3B, cAMP
T4 construct: expressed in transfected cells; host or cells: CHO-K1 (membranes)
T4 sequence (P33032 whole entry): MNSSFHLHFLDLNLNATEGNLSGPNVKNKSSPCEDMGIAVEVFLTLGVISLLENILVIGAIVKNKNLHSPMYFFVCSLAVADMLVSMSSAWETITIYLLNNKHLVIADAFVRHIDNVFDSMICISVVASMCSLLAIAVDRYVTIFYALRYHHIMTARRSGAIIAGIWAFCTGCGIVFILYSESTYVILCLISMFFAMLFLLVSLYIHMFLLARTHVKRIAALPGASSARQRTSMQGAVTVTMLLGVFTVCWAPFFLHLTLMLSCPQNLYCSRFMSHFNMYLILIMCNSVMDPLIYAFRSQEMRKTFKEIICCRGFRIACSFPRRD
Method: as §4

hMC5-R [7] = target: T4, hMC5-R; test: Radioligand binding assay, [125I]-NDP-α-MSH competition, hMC5-R; conditions: CHO-K1 cell membranes
Method: as §1, §2, §3

hMC3-R [8] = target: T2, hMC3-R; test: cyclic AMP bioassay (ECL), CHO-K1 cells expressing hMC3-R; assay type: cell-based; conditions: Table 3B, cAMP
Method: as §4

With “Ac-[Nle]CH[dF]RW[GABA][Pen]-NH2 (disulfide 2-8)” the pKi (hMC1-R [1]) was 9.92, the pKi (hMC3-R [2]) was 8.00 and the pKi (hMC4-R [3]) was 9.37. The pEC50 (hMC1-R [4]) was 9.55, the pEC50 (hMC4-R [5]) was 10.55 and the pEC50 (hMC5-R [6]) was 8.41. The pKi (hMC5-R [7]) was 9.38 and the pEC50 (hMC3-R [8]) was 9.62.
